Source: patent publication US12304932B2, “PACAP stabilized peptide” (SENJU PHARMACEUTICAL CO., LTD., priority 2017, dated 2025)
Numbered stars: 1 amine (or outer) side, 2 acyl side, 3 side chain; on linkers, the order of the positions; unused ones are H or OH. Square brackets hold non-standard residues; d marks the D form. Peptide text beside a SMILES is read from it. * marks the point of attachment. Ala(1H-tetrazol-5-yl) = N[C@@H](Cc1nnn[nH]1)C(=O)O; X1 = O=C([C@H](CCc1nnn[nH]1)N[*:1])[*:2]; Nle = CCCC[C@H](N)C(=O)O; Ms = CS(=O)(=O)*

Assay: Peptide stability tests 2 and 3: Tris buffer pH 7.0, stored at 60° C., HPLC conditions 2
Assay type: physicochemical
Settings: Tris buffer pH 7.0, 60° C.; for survival rate after correction for water, 60° C., 1-week storage / survival rate after correction for water, 60° C., 2-week storage: 100 μM peptide; for survival rate after correction for water, 60° C., 2-week storage: 2 weeks
Method: (§1) Peptides 1, 2 and 6 to 9 synthesized in Example 2 were weighed and dissolved in Tris buffer (pH 7.0) to prepare 1.0 mM peptide solutions. The solutions were filtered with a Chromatdisk (product of Merck Millipore, Millex-GV, 0.22 μm). Each filtrate was diluted to 100 μM with Tris buffer (pH 7.0) and dispensed into a tube (Protein LoBind Tube by Eppendorf Co.). The prepared peptide solutions were incubated for 1 week or 2 weeks in a 60° C. thermostatic bath to obtain stored samples. A simultaneously prepared sample among the peptide solutions that was not stored was used as a standard sample (initial sample). The standard sample and the stored samples were stored at −30° C. until sample analysis.
Each stored sample was measured under the following HPLC analysis conditions 2, and the survival rate after correction for water for each peptide among the stored samples was calculated in the same manner as Example 3.
Column: XSelect CSH C18 by Waters Co., 5 μm, 4.6×250 mm
Guard column: XSelect CSH C18 by Waters. Co., 5 μm, 4.6×20 mm Guard Cartridge
Detection wavelength: 220 nm
Mobile phase A: 0.1% formic acid in water
Mobile phase B: 0.1% formic acid in acetonitrile
Measuring time: 20 minutes
Measuring sample injection rate: 50 μL
Column temperature: 40° C.
Mobile phase delivery: The mixing ratio of mobile phase A and mobile phase B was varied as shown in Table 5 for linear concentration gradient control.
as §1, with “Peptides 12 to 25, 27” for “Peptides 1, 2”, “and 28” for “and 6 to 9”, “for one” for “for 1”
The survival rate after correction for water for each peptide among the stored samples was calculated in the same manner as Example 4, and the results are shown in Table 7.
as §1, with “29” for “1, 2 and 6”, “34” for “9”, “for” for “for 1 week or”
The survival rate after correction for water for each peptide among the stored samples was calculated in the same manner as Example 4, and the results are shown in Table 7-2.

| Structure (SMILES) | survival rate after correction for water, 60° C., 1-week storage | survival rate after correction for water, 60° C., 2-week storage | stability in aqueous solution, in words |
| --- | --- | --- | --- |
| CC[C@H](C)[C@H](NC(=O)CNC(=O)[C@H](CC(=O)O)NC(=O)[C@H](CO)NC(=O)[C@H](Cc1cnc[nH]1)NC(C)=O)C(=O)N[C@@H](Cc1ccccc1)C(=O)N[C@H](C(=O)N[C@@H](CC(=O)O)C(=O)N[C@@H](CO)C(=O)N[C@@H](Cc1ccc(O)cc1)C(=O)N[C@@H](CO)C(=O)N[C@@H](CCCNC(=N)N)C(=O)N[C@@H](Cc1ccc(O)cc1)C(=O)N[C@@H](CCCNC(=N)N)C(=O)N[C@@H](CCCCN)C(=O)N[C@@H](CCC(N)=O)C(=O)N[C@@H](CCSC)C(=O)N[C@@H](C)C(=O)N[C@H](C(=O)N[C@@H](CCCCN)C(=O)N[C@@H](CCCCN)C(=O)N[C@@H](Cc1ccc(O)cc1)C(=O)N[C@@H](CC(C)C)C(=O)N[C@@H](C)C(=O)N[C@@H](C)C(=O)N[C@H](C(=O)N[C@@H](CC(C)C)C(N)=O)C(C)C)C(C)C)[C@@H](C)O [Peptide 2, reference compound] | 28.7% | 17.2% | only equivalent stability |
| CCCC[C@H](NC(=O)[C@H](CCC(N)=O)NC(=O)[C@H](CCCCN)NC(=O)[C@H](CCCNC(=N)N)NC(=O)[C@H](Cc1ccc(O)cc1)NC(=O)[C@H](CCCNC(=N)N)NC(=O)[C@H](CO)NC(=O)[C@H](Cc1ccc(O)cc1)NC(=O)[C@H](CO)NC(=O)[C@H](Cc1nnn[nH]1)NC(=O)[C@@H](NC(=O)[C@H](Cc1ccccc1)NC(=O)[C@@H](NC(=O)CNC(=O)[C@H](Cc1nnn[nH]1)NC(=O)[C@H](CO)NC(=O)[C@@H](N)Cc1c[nH]cn1)[C@@H](C)CC)[C@@H](C)O)C(=O)N[C@@H](C)C(=O)N[C@H](C(=O)N[C@@H](CCCCN)C(=O)N[C@@H](CCCCN)C(=O)N[C@@H](Cc1ccc(O)cc1)C(=O)N[C@@H](CC(C)C)C(=O)N[C@@H](C)C(=O)N[C@@H](C)C(=O)N[C@H](C(=O)N[C@@H](CC(C)C)C(N)=O)C(C)C)C(C)C [Peptide 6] (H-HS[Ala(1H-tetrazol-5-yl)]GIFT[Ala(1H-tetrazol-5-yl)]SYSRYRKQ[Nle]AVKKYLAAVL-NH2) | 91.3% | 82.4% | drastically increased stability |
| CC[C@H](C)[C@H](NC(=O)CNC(=O)[C@H](Cc1nnn[nH]1)NC(=O)[C@H](CO)NC(=O)[C@@H](N)Cc1c[nH]cn1)C(=O)N[C@@H](Cc1ccccc1)C(=O)N[C@H](C(=O)N[C@@H](Cc1nnn[nH]1)C(=O)N[C@@H](CO)C(=O)N[C@@H](Cc1ccc(O)cc1)C(=O)N[C@@H](CO)C(=O)N[C@@H](CCCNC(=N)N)C(=O)N[C@@H](Cc1ccc(O)cc1)C(=O)N[C@@H](CCCNC(=N)N)C(=O)N[C@@H](CCCCN)C(=O)N[C@@H](CCC(N)=O)C(=O)N[C@@H](CC(C)C)C(=O)N[C@@H](C)C(=O)N[C@H](C(=O)N[C@@H](CCCCN)C(=O)N[C@@H](CCCCN)C(=O)N[C@@H](Cc1ccc(O)cc1)C(=O)N[C@@H](CC(C)C)C(=O)N[C@@H](C)C(=O)N[C@@H](C)C(=O)N[C@H](C(=O)N[C@@H](CC(C)C)C(N)=O)C(C)C)C(C)C)[C@@H](C)O [Peptide 7] (H-HS[Ala(1H-tetrazol-5-yl)]GIFT[Ala(1H-tetrazol-5-yl)]SYSRYRKQLAVKKYLAAVL-NH2) | 91.7% | 84.8% | drastically increased stability |
| CCCC[C@H](NC(=O)[C@H](CCC(N)=O)NC(=O)[C@H](CCCCN)NC(=O)[C@H](CCCNC(=N)N)NC(=O)[C@H](Cc1ccc(O)cc1)NC(=O)[C@H](CCCNC(=N)N)NC(=O)[C@H](CO)NC(=O)[C@H](Cc1ccc(O)cc1)NC(=O)[C@H](CO)NC(=O)[C@H](Cc1nnn[nH]1)NC(=O)[C@@H](NC(=O)[C@H](Cc1ccccc1)NC(=O)[C@@H](NC(=O)CNC(=O)[C@H](Cc1nnn[nH]1)NC(=O)[C@H](CO)NC(=O)[C@H](Cc1c[nH]cn1)NC(C)=O)[C@@H](C)CC)[C@@H](C)O)C(=O)N[C@@H](C)C(=O)N[C@H](C(=O)N[C@@H](CCCCN)C(=O)N[C@@H](CCCCN)C(=O)N[C@@H](Cc1ccc(O)cc1)C(=O)N[C@@H](CC(C)C)C(=O)N[C@@H](C)C(=O)N[C@@H](C)C(=O)N[C@H](C(=O)N[C@@H](CC(C)C)C(N)=O)C(C)C)C(C)C [Peptide 8] (Ac-HS[Ala(1H-tetrazol-5-yl)]GIFT[Ala(1H-tetrazol-5-yl)]SYSRYRKQ[Nle]AVKKYLAAVL-NH2) | 98.1% | 92.9% | further increased stability |
| CC[C@H](C)[C@H](NC(=O)CNC(=O)[C@H](Cc1nnn[nH]1)NC(=O)[C@H](CO)NC(=O)[C@H](Cc1c[nH]cn1)NC(C)=O)C(=O)N[C@@H](Cc1ccccc1)C(=O)N[C@H](C(=O)N[C@@H](Cc1nnn[nH]1)C(=O)N[C@@H](CO)C(=O)N[C@@H](Cc1ccc(O)cc1)C(=O)N[C@@H](CO)C(=O)N[C@@H](CCCNC(=N)N)C(=O)N[C@@H](Cc1ccc(O)cc1)C(=O)N[C@@H](CCCNC(=N)N)C(=O)N[C@@H](CCCCN)C(=O)N[C@@H](CCC(N)=O)C(=O)N[C@@H](CC(C)C)C(=O)N[C@@H](C)C(=O)N[C@H](C(=O)N[C@@H](CCCCN)C(=O)N[C@@H](CCCCN)C(=O)N[C@@H](Cc1ccc(O)cc1)C(=O)N[C@@H](CC(C)C)C(=O)N[C@@H](C)C(=O)N[C@@H](C)C(=O)N[C@H](C(=O)N[C@@H](CC(C)C)C(N)=O)C(C)C)C(C)C)[C@@H](C)O [Peptide 9] (Ac-HS[Ala(1H-tetrazol-5-yl)]GIFT[Ala(1H-tetrazol-5-yl)]SYSRYRKQLAVKKYLAAVL-NH2) | 98.4% | 92.8% | further increased stability |
| CC[C@H](C)[C@H](NC(=O)CNC(=O)[C@H](Cc1nnn[nH]1)NC(=O)[C@H](CO)NC(=O)[C@H](Cc1c[nH]cn1)NS(C)(=O)=O)C(=O)N[C@@H](Cc1ccccc1)C(=O)N[C@H](C(=O)N[C@@H](Cc1nnn[nH]1)C(=O)N[C@@H](CO)C(=O)N[C@@H](Cc1ccc(O)cc1)C(=O)N[C@@H](CO)C(=O)N[C@@H](CCCNC(=N)N)C(=O)N[C@@H](Cc1ccc(O)cc1)C(=O)N[C@@H](CCCNC(=N)N)C(=O)N[C@@H](CCCCN)C(=O)N[C@@H](CCC(N)=O)C(=O)N[C@@H](CC(C)C)C(=O)N[C@@H](C)C(=O)N[C@H](C(=O)N[C@@H](CCCCN)C(=O)N[C@@H](CCCCN)C(=O)N[C@@H](Cc1ccc(O)cc1)C(=O)N[C@@H](CC(C)C)C(=O)N[C@@H](C)C(=O)N[C@@H](C)C(=O)N[C@H](C(=O)N[C@@H](CC(C)C)C(N)=O)C(C)C)C(C)C)[C@@H](C)O [Peptide 12] (Ms-HS[Ala(1H-tetrazol-5-yl)]GIFT[Ala(1H-tetrazol-5-yl)]SYSRYRKQLAVKKYLAAVL-NH2) | 97.0% | 93.6% |  |
| CC[C@H](C)[C@H](NC(=O)CNC(=O)[C@H](Cc1nnn[nH]1)NC(=O)[C@H](CO)NC(=O)[C@H](Cc1c[nH]cn1)NC(C)=O)C(=O)N[C@@H](Cc1ccccc1)C(=O)N[C@H](C(=O)N[C@@H](Cc1nnn[nH]1)C(=O)N[C@@H](CO)C(=O)N[C@@H](Cc1ccc(O)cc1)C(=O)N[C@@H](CO)C(=O)N[C@@H](CCCNC(=N)N)C(=O)N[C@@H](Cc1ccc(O)cc1)C(=O)N[C@@H](CCCNC(=N)N)C(=O)N[C@@H](CCCCN)C(=O)N[C@@H](CCc1nnn[nH]1)C(=O)N[C@@H](CC(C)C)C(=O)N[C@@H](C)C(=O)N[C@H](C(=O)N[C@@H](CCCCN)C(=O)N[C@@H](CCCCN)C(=O)N[C@@H](Cc1ccc(O)cc1)C(=O)N[C@@H](CC(C)C)C(=O)N[C@@H](C)C(=O)N[C@@H](C)C(=O)N[C@H](C(=O)N[C@@H](CC(C)C)C(N)=O)C(C)C)C(C)C)[C@@H](C)O [Peptide 13] (Ac-HS[Ala(1H-tetrazol-5-yl)]GIFT[Ala(1H-tetrazol-5-yl)]SYSRYRK[X1]LAVKKYLAAVL-NH2) | 97.4% | 95.4% |  |
